Measured values from patent US20170321285A1, “NLRC5 AS A BIOMARKER FOR CANCER PATIENTS AND A TARGET FOR CANCER THERAPY” (THE TEXAS A&M UNIVERSITY SYSTEM, priority 2016, published 2017).

Tested on: cancer cell lines
Assay: not given
Conditions: 3 μM 5-azacytidine, various cancer cell lines, qPCR (FIG. 2A)

**Q.** With `Nc1ncn([C@@H]2O[C@H](CO)[C@@H](O)[C@H]2O)c(=O)n1` [5-Azacitidine, 4-amino-1-β-D-ribofuranosyl-1,3,5-triazin-2(1H)-one] as the compound, how does the expression of hla-b read?
**A.** upregulation

**Q.** And the “expression of nlrc5” value?
**A.** upregulation

Tested on: hla-b promoter
Assay: hla-b promoter dual-luciferase reporter assay with nlrc5 mutant plasmids in HEK293T cells
Format: cell-based, human
Conditions: 100 ng mutant plasmid with HLA-B250 luciferase reporter, 48 h post-transfection (FIG. 3H)
Text: FIGS. 3A-3J. Copy number loss and somatic mutations in nlrc5 are associated with reduced MHC class I gene expressions. FIG. 3A. Percentage of cancer patients who carry nlrc5 copy number (CN) loss among 20 TCGA tumor types. Based on GISTIC values, samples were classified into nlrc5 diploid group and CN loss group: GISTIC 0, diploid; −1 and −2, CN loss. FIG. 3B. Percentage of cancer patients who carry copy number (CN) loss of various MHC class I-related genes for 10 TCGA tumor types for which data are available (bladder, breast, colon, head/neck, lung adeno, lung squamous, ovarian, prostate, rectal and uterine cancer, top) and ovarian cancer (bottom). Statistical significance was determined by chi-square test. *: p<0.01, **: p<0.0001. FIG. 3C. Heatmap showing gene expression of nlrc5 and hla-b in nlrc5 diploid group (n=2028) or CN loss group (n=890) for 17 TCGA tumor types in which the nlrc5 promoter is not methylated. FIG. 3D. The box plots showing nlrc5 and MHC class I-related gene expression in the nlrc5 diploid group or CN loss group in breast cancer patients. FIG. 3E. Pie chart representing the percentage distribution of different types of mutations in nlrc5 in various cancer patients (n=7752). FIG. 3F. Mutation rate in 20 TCGA tumor types. FIG. 3G. Representation of nlrc5 indicating 13 mutations found in at least 2 different cancer patients. FIG. 3H. HEK293T cells were co-transfected with either empty control vector or the respective nlrc5 mutant plasmid with hla-b reporter plasmid and hla-b promoter activity was assessed by the dual-luciferase assay and normalized against Renilla […] activity. Data are representative of two independent experiments performed in duplicate and is plotted as fold induction with respect to the control vector. Error bar: ±sd. FIG. 3I. […] FIG. 3J. Box plots for the expression level of MHC class I-related genes normalized by the expression level of nlrc5 in 20 TCGA tumor types that are either nlrc5 wild-type or nlrc5 mutant. FIGS. 3D-3J. The horizontal line corresponds to the median, the box to the 25th-75th percentile and the lines to the confidence interval (5th-95th percentile).
The expression vector for human gfp-nlrc5 in pcDNA3.1 was previously described. The reporter gene construct used for MHC class I promoter activity (HLA-B250) was also previously described. Selected nlrc5 mutants were constructed using pcDNA3.1-gfp-nlrc5 by site-directed mutagenesis using the primers listed in Table 3. All the plasmids were confirmed by sequencing (Gene Technologies Laboratory).
HEK293T cells were cultured in DMEM supplemented with 10% FBS and penicillin/streptomycin (Life Technologies) at 37° C. with 5% CO2. Cells were transiently transfected using polyethylenimine at a DNA/polyethylenimine ratio of 1:3 in serum-free media. For luciferase assay, HEK293T cells were split at a density of 5×10^4 cells/well into 24-well plates 1 day prior to transfection. Cells were co-transfected using 100 ng of gfp-nlrc5 or 100 ng of the specified nlrc5 mutant plasmids along with 100 ng of HLA-B250 luciferase reporter construct. 20 ng promoterless Renilla luciferase vector (pRL-null; Promega) were included for normalization of transfection efficiency. Cells were harvested 48 h post-transfection, and cell lysates were analyzed using the Dual-Luciferase Reporter Assay System (Promega) according to the manufacturer's instructions.

**Q.** Which “activity of the NLRC5 protein as compared to the wild-type NLRC5 protein (induction of hla-b promoter activity)” value does the source give for “A737D: NLRC5 protein mutant found in cancer patients, expressed from gfp-nlrc5 vector made by site-directed mutagenesis” here?
**A.** reduces the activity

**Q.** How did the “activity of the NLRC5 protein as compared to the wild-type NLRC5 protein (induction of hla-b promoter activity)” value turn out when “R262C: NLRC5 protein mutant found in cancer patients, expressed from gfp-nlrc5 vector made by site-directed mutagenesis” was run?
**A.** reduces the activity

**Q.** For “R574H: NLRC5 protein mutant found in cancer patients, expressed from gfp-nlrc5 vector made by site-directed mutagenesis”, which “activity of the NLRC5 protein as compared to the wild-type NLRC5 protein (induction of hla-b promoter activity)” value is on record?
**A.** does not reduce or increases the activity

**Q.** For “D884N: NLRC5 protein mutant found in cancer patients, expressed from gfp-nlrc5 vector made by site-directed mutagenesis”, which “activity of the NLRC5 protein as compared to the wild-type NLRC5 protein (induction of hla-b promoter activity)” value is on record?
**A.** does not reduce or increases the activity

**Q.** “T1173M: NLRC5 protein mutant found in cancer patients, expressed from gfp-nlrc5 vector made by site-directed mutagenesis” was tested. Which “activity of the NLRC5 protein as compared to the wild-type NLRC5 protein (induction of hla-b promoter activity)” value did it give?
**A.** does not reduce or increases the activity

**Q.** How did the “activity of the NLRC5 protein as compared to the wild-type NLRC5 protein (induction of hla-b promoter activity)” value turn out when “R386W: NLRC5 protein mutant found in cancer patients, expressed from gfp-nlrc5 vector made by site-directed mutagenesis” was run?
**A.** does not reduce or increases the activity

**Q.** Which “activity of the NLRC5 protein as compared to the wild-type NLRC5 protein (induction of hla-b promoter activity)” value does the source give for “Q1847*: NLRC5 nonsense mutant found in cancer patients, expressed from gfp-nlrc5 vector made by site-directed mutagenesis” here?
**A.** reduces the activity

**Q.** With “R550W: NLRC5 protein mutant found in cancer patients, expressed from gfp-nlrc5 vector made by site-directed mutagenesis” as the compound, how does the “activity of the NLRC5 protein as compared to the wild-type NLRC5 protein (induction of hla-b promoter activity)” value read?
**A.** reduces the activity

**Q.** For “R1830C: NLRC5 protein mutant found in cancer patients, expressed from gfp-nlrc5 vector made by site-directed mutagenesis”, which “activity of the NLRC5 protein as compared to the wild-type NLRC5 protein (induction of hla-b promoter activity)” value is on record?
**A.** reduces the activity

**Q.** For “S496F: NLRC5 protein mutant found in cancer patients, expressed from gfp-nlrc5 vector made by site-directed mutagenesis”, which “activity of the NLRC5 protein as compared to the wild-type NLRC5 protein (induction of hla-b promoter activity)” value is on record?
**A.** does not reduce or increases the activity

**Q.** Which “activity of the NLRC5 protein as compared to the wild-type NLRC5 protein (induction of hla-b promoter activity)” value does the source give for “A1512T: NLRC5 protein mutant found in cancer patients, expressed from gfp-nlrc5 vector made by site-directed mutagenesis” here?
**A.** does not reduce or increases the activity

**Q.** With “L181P: NLRC5 protein mutant found in cancer patients, expressed from gfp-nlrc5 vector made by site-directed mutagenesis” as the compound, how does the “activity of the NLRC5 protein as compared to the wild-type NLRC5 protein (induction of hla-b promoter activity)” value read?
**A.** reduces the activity
